The target in this assay is Glycogen synthase kinase-3 beta (Homo sapiens, UniProt P49841). Description: concentration-response blocking of human GSK3B – biochemical, luminescence, cell-free homogeneous, retest, dose response (AID 434954).
Glycogen synthase kinase-3 beta, sequence (P49841 whole entry): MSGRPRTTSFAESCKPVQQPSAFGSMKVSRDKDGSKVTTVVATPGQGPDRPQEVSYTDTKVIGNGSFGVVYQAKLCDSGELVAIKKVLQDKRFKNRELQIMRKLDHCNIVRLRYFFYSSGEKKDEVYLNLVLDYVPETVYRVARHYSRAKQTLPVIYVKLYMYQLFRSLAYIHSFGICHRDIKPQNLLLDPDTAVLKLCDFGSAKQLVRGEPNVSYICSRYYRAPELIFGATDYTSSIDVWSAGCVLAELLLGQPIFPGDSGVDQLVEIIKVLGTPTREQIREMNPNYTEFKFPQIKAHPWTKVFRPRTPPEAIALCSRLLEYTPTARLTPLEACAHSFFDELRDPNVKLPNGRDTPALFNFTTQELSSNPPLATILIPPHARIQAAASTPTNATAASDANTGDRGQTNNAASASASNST
One may read the EC50 as the concentration giving half of the maximal effect. Turning to `O=[N+]([O-])c1ccc(-n2nnnc2-c2ccccc2)c([N+](=O)[O-])c1` [1-{2,4-bisnitrophenyl}-5-phenyl-1H-tetraazole], the half-maximal effective concentration (EC50) is > 300 µM.

In the case of `COc1ccc(COC(=O)C2C(C)=NC(=O)NC2c2ccc(O)c(OC)c2)cc1` (stereo unspecified) [4-(4-hydroxy-3-methoxyphenyl)-6-methyl-2-oxo-3,4-dihydro-1H-pyrimidine-5-carboxylic acid (4-methoxyphenyl)methyl ester], the EC50 is > 300 µM.

In the case of `O=c1c(O)c(-c2ccc(O)cc2)oc2cc(O)cc(O)c12`, it took 11.6 µM to reach a half-maximal effect (EC50).

Consider `Cc1csc(SCC(=O)Nc2ccc(Cl)cn2)n1` [N-(5-chloropyridin-2-yl)-2-[(4-methyl-1,3-thiazol-2-yl)sulfanyl]acetamide], for which the EC50 amounted to 19.4 µM.

As for `CCN(Cc1ccccc1)S(=O)(=O)c1ccc2c(c1)NC(=O)CC(=O)N2` [N-ethyl-2,4-dioxo-N-(phenylmethyl)-1,5-dihydro-1,5-benzodiazepine-7-sulfonamide], the response was half-maximal at 59.6 µM (EC50).

As for `C=CCn1cc(/C=C/c2cc[n+](C)cc2)c2ccccc21` [3-[(E)-2-(1-methylpyridin-1-ium-4-yl)ethenyl]-1-prop-2-enyl-indole;iodide], the EC50 is > 300 µM.

On to `CCc1ccccc1-n1c(O)cc(N2CCc3ccccc32)c1O` [SMR000285101], for which the concentration for a half-maximal effect (EC50) was > 300 µM.

In turn, `Nc1nc(NCCCN2CCOCC2)nc(Nc2cccc(F)c2)c1[N+](=O)[O-]` [SMR000436037] showed a concentration for a half-maximal effect (EC50) of 87.5 µM.

Turning to `Cc1ccc(CSc2ccc3nnc(-c4ccccn4)n3n2)cc1`, the EC50 is > 300 µM.

Turning to `CCOc1ccc(NC(=O)Nc2cnccn2)cc1` [SMR000297712], the EC50 was > 300 µM.

For `CCN1C(=O)[C@H]2[C@@H](c3ccc(-c4ccccc4)cc3)N[C@@](CC(C)C)(C(=O)OC)[C@H]2C1=O` [SMR000814381], the EC50 is > 300 µM.

For the compound `N#Cc1c(O)nc(-c2ccncc2)nc1-c1ccccc1` [4-oxidanylidene-6-phenyl-2-pyridin-4-yl-1H-pyrimidine-5-carbonitrile], the EC50 is > 300 µM.

`COc1cc2ncnc(Nc3ccc4c(c3)OCO4)c2cc1OC`: the EC50 is > 300 µM.

As to `C[C@H]1[C@@H](c2ccccc2)O[C@@H](c2ccccc2Br)N1C` [MLS001242758], the concentration giving a half-maximal response (EC50) was > 300 µM.

Regarding `O=c1c(-c2ccc(O)cc2)coc2cc(O)cc(O)c12` [Prunetol], the EC50 is > 300 µM.

The compound `COc1ccc2nc(NC(=O)CSc3nc4cccnc4n3C)sc2c1` [MLS000072990] came in with an EC50 of 113 µM.

Consider `CN1CC(=O)Nc2ccc([N+](=O)[O-])cc2C1=O`, for which the EC50 was > 300 µM.

The compound `O=C1c2ccccc2-c2onc3ccc(NCCCn4ccnc4)c1c23` [SMR000044769] returned an EC50 of 167 µM.

Consider `CCCn1nc(NC(=O)C2CCCO2)c2cc3cc(C)ccc3nc21` (stereo unspecified) [SMR000148635], for which the concentration for a half-maximal effect (EC50) was > 300 µM.

As to `CCNc1nc(N)c(C(=O)C23CC4CC(CC(C4)C2)C3)s1` [Adamantan-1-yl-(4-amino-2-ethylamino-thiazol-5-yl)-methanone], the EC50 was > 300 µM.

Compound `CCNc1nc(N)nc(-c2cc(Cl)ccc2O)n1` [(6E)-6-[6-amino-4-(ethylamino)-1H-1,3,5-triazin-2-ylidene]-4-chloro-1-cyclohexa-2,4-dienone] displayed a 50% effective concentration (EC50) of 3.56 µM.

In the case of `COc1cccc(/C=C2/Sc3ccc(C(=O)NCCN4CCCC4)cc3NC2=O)c1` [(2E)-2-[(3-methoxyphenyl)methylidene]-3-oxo-N-(2-pyrrolidin-1-ylethyl)-4H-1,4-benzothiazine-6-carboxamide], the midpoint of the response, the EC50, lay at 2.81 µM. This EC50 and that of the compound before are within 1.5-fold of each other.

Take `c1ccc(Nc2nc(-c3ccccc3)nc3ccccc23)cc1` [N,2-diphenylquinazolin-4-amine]: the half-maximal effective concentration (EC50) was > 300 µM.

Regarding `CN(C)/N=N/c1ccc(S(N)(=O)=O)cc1` [SMR000272943], the concentration for a half-maximal effect (EC50) is > 300 µM.

`CS(=O)(=O)c1ccc2nc(NC(=O)CN3CCN(Cc4ccccc4)CC3)sc2c1` [MLS000064538]: the concentration giving a half-maximal response (EC50) was > 300 µM.

On to `CC(Cl)C(=O)Nc1ncc(C(F)(F)F)cc1Cl` (stereo unspecified) [SMR000152526], for which the concentration giving a half-maximal response (EC50) was > 300 µM.

For the compound `O=C1CC(O)(C(F)(F)F)Oc2c1ccc1ccccc21` (stereo unspecified) [2-oxidanyl-2-(trifluoromethyl)-3H-benzo[h]chromen-4-one], the 50% effective concentration (EC50) was > 300 µM.

The compound `c1cc(CSc2nnc(-c3ccc4c(c3)OCO4)o2)ccn1` [SMR000006350] gave an EC50 of 1.71 µM. This counts as single-digit micromolar.

As for `Cc1coc2cc3oc(=O)c(CCC(=O)NCCCN4CCCC4=O)c(C)c3cc12` [3-(3,5-dimethyl-7-oxo-6-furo[3,2-g][1]benzopyranyl)-N-[3-(2-oxo-1-pyrrolidinyl)propyl]propanamide], the concentration for a half-maximal effect (EC50) was > 300 µM.

Turning to `O=C(O)CCn1cc(C=C2C(=O)NC(=S)NC2=O)c(-c2ccccc2)n1` [MLS000707577], the EC50 is > 300 µM.

In the case of `O=C(CCCC1=Nc2ccccc2S(=O)(=O)N1)Nc1ccccc1` [MLS001028511], the 50% effective concentration (EC50) is > 300 µM.

On to `CC(CC(=O)Nc1nnc(C(C)(C)C)s1)c1ccccc1` (stereo unspecified) [MLS001205585], for which the concentration for a half-maximal effect (EC50) is > 300 µM.

For the compound `CC(=O)c1cccc(Nc2nc(-c3ccccc3)nc3ccccc23)c1` [SMR000516691], the half-maximal effective concentration (EC50) was > 300 µM.

Consider `CCN1C(=O)N[C@@H](c2ccccc2)[C@@H](C(=O)OC)[C@H]1C` [CMLD004197], for which the EC50 is > 300 µM.

In turn, `O=C(c1ccc(Cl)cc1)c1coc2ccc(O)cc12` [(4-Chloro-phenyl)-(5-hydroxy-benzofuran-3-yl)-methanone] came in with a 50% effective concentration (EC50) of 13.4 µM. In other words, the double-digit micromolar range.

The compound `CC(=O)N1CCc2c(sc(NC(=O)CCS(=O)(=O)c3ccc(C)cc3)c2C(N)=O)C1` [6-ethanoyl-2-[3-(4-methylphenyl)sulfonylpropanoylamino]-5,7-dihydro-4H-thieno[2,3-c]pyridine-3-carboxamide] had an EC50 of 26.2 µM.

Consider `O=C1CN(C(=O)c2ccco2)c2ccccc2N1` [4-(Furan-2-carbonyl)-3,4-dihydro-1H-quinoxalin-2-one], for which the EC50 was > 300 µM.

Turning to `COc1cccc2cc(C(=O)NCc3ccc(C)cc3)c(=O)oc12` [8-methoxy-N-(4-methylbenzyl)-2-oxo-2H-chromene-3-carboxamide], the EC50 is > 300 µM.

For the compound `Cc1ccc(SCCc2ccc(C)nc2)cc1`, the EC50 is > 300 µM.

Regarding `Nc1nc(NCc2ccccc2)nc(Nc2cccc(F)c2)c1[N+](=O)[O-]` [N-Benzyl-N'-(3-fluoro-phenyl)-5-nitro-pyrimidine-2,4,6-triamine], a half-maximal effect (EC50) was put at 108 µM.

`Cc1ccc(-c2nn(-c3ccccc3)cc2C=Nn2c(-c3ccncc3)n[nH]c2=S)cc1` [4-[[3-(4-methylphenyl)-1-phenyl-4-pyrazolyl]methylideneamino]-3-pyridin-4-yl-1H-1,2,4-triazole-5-thione]: the EC50 was > 300 µM.

With `Clc1nccc(NCc2ccccc2)n1` [N-benzyl-N-(2-chloropyrimidin-4-yl)amine], the EC50 is > 300 µM.

`CCOC(=O)c1cnc2ccccc2c1Nc1ccc(C(=O)O)cc1` [SMR000299060]: the EC50 is > 300 µM.

As for `NS(=O)(=O)c1ccc(N=Nc2cnc(O)c(O)c2)cc1` [4-[(5,6-dioxo-3-pyridinyl)hydrazo]benzenesulfonamide], the 50% effective concentration (EC50) was > 300 µM.

`COc1ccc(C)cc1NC(=O)CN(C)S(=O)(=O)c1ccc2c(c1)CC(C)N2C(C)=O` (stereo unspecified) [MLS001122753]: the EC50 was > 300 µM.

As to `O=C(O)/C=C/C(=O)NCC1CCC(CNC(=O)/C=C/C(=O)O)CC1` (stereo unspecified) [(E)-4-[[4-[[[(E)-3-carboxy-1-oxoprop-2-enyl]amino]methyl]cyclohexyl]methylamino]-4-oxo-2-butenoic acid], the concentration giving a half-maximal response (EC50) was > 300 µM.

Regarding `CCCCOC(=O)c1ccc(O)cc1` [butyl 4-hydroxybenzoate], the EC50 was > 300 µM.

As for `COc1cc(C=NNC(=O)c2sc(N)c(C#N)c2C)ccc1O` [MLS000540774], the midpoint of the response, the EC50, lay at 0.436 µM.

Consider `Cc1c(C(=O)OCc2ccccc2)nnn1-c1nonc1N` [(phenylmethyl) 1-(4-azanyl-1,2,5-oxadiazol-3-yl)-5-methyl-1,2,3-triazole-4-carboxylate], for which the EC50 turned out to be 7.34 µM.

Compound `CN1/C(=C/C=C(/C#N)C(N)=O)C(C)(C)c2ccccc21` [(Z,4E)-2-cyano-4-(1,3,3-trimethyl-2-indolylidene)-2-butenamide] registered a half-maximal effective concentration (EC50) of 15.5 µM. This EC50 is about 2.1-fold higher than that of the compound before.

Turning to `O=c1cc(O)cc2oc(-c3ccc(O)c(O)c3)c(O[C@@H]3O[C@H](CO)[C@@H](O)[C@H](O)[C@H]3O)c(O)c1-2` [Quercetin 3-O-beta-D-glucoside], the EC50 was 15.8 µM.

Regarding `OC(c1ccccc1)c1ccncc1` (stereo unspecified) [phenyl(pyridin-4-yl)methanol], the EC50 is > 300 µM.

As to `O=C(NN=Cc1ccccn1)c1cccnc1` [Nicotinic acid [1-pyridin-2-yl-meth-(E)-ylidene]-hydrazide], the EC50 is > 300 µM.

As for `CN(C(=O)CSc1nnc(-c2c[nH]c3ccccc23)o1)C1CCS(=O)(=O)C1` (stereo unspecified) [N-(1,1-dioxothiolan-3-yl)-2-[[(2Z)-2-indol-3-ylidene-3H-1,3,4-oxadiazol-5-yl]sulfanyl]-N-methylacetamide], the EC50 is > 300 µM.

With `CC(C)=CCc1c(O)cc(O)c2c(=O)c3c(CC=C(C)C)c(O)ccc3oc12` [2,6,8-trihydroxy-1,5-bis(3-methylbut-2-enyl)xanthen-9-one], the EC50 is > 300 µM.

`COc1cc(CN=Nc2ccc([N+](=O)[O-])cc2)ccc1OCC(=O)Nc1ccc(C)c(C)c1` [MLS000537060]: the half-maximal effective concentration (EC50) is > 300 µM.

As to `CC1(C)CC(=O)C2C(=Nc3[nH]c(=S)[nH]c(=O)c3C2c2ccccc2)C1` (stereo unspecified) [8,8-dimethyl-5-phenyl-2-sulfanylidene-5,7,9,10-tetrahydro-1H-pyrimido[4,5-b]quinoline-4,6-dione], the EC50 was > 300 µM.

As for `COc1cccc(C2c3c([nH]n(-c4ccccc4)c3=O)N=C3CCCC(=O)C32)c1` (stereo unspecified) [3-hydroxy-4-(3-methoxyphenyl)-2-phenyl-2,4,6,7,8,9-hexahydro-5H-pyrazolo[3,4-b]quinolin-5-one], the concentration giving a half-maximal response (EC50) is > 300 µM.

Regarding `CCCc1cc(=O)oc2cc(C)c3c(C)coc3c12` [MLS000112563], the 50% effective concentration (EC50) was > 300 µM.

`Cc1c(Cc2ccccc2)c(=O)oc2cc(O)cc(O)c12` [SMR000300454] gave an EC50 of 15.8 µM.

Consider `COc1ccc2cc(C(=O)C3CCCN(C(=O)c4sc(C)nc4C)C3)ccc2c1` (stereo unspecified) [SMR000653741], for which the 50% effective concentration (EC50) was > 300 µM.
